Laboratory results taken from patent publication US20260234147A1 (priority 2023, published 2026).
Read-outs that look alike come from different tables or passages of the source.

Columns and labels:
α2A adrenergic receptor = biological target: T1, α2A adrenergic receptor (Homo sapiens, UniProt P08913); test: Radioligand binding assay (Eurofins Cerep), [3H]RX 821002 displacement
T1 construct: Eurofins Cerep (contract screening)
T1 sequence (P08913 1-465): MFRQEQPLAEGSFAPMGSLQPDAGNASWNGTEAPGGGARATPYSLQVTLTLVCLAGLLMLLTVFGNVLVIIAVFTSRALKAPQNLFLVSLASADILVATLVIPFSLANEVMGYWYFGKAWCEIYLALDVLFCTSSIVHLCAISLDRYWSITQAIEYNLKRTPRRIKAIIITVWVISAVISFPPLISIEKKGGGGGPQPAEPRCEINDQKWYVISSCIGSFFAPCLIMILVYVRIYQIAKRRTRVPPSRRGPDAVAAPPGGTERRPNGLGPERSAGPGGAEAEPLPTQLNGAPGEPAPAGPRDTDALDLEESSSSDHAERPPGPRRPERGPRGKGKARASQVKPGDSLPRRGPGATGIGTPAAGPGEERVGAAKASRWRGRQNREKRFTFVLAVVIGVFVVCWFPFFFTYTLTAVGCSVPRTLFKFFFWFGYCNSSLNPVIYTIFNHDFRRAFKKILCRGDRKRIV

α2C adrenergic receptor = biological target: T2, α2C adrenergic receptor (Homo sapiens, UniProt P18825); test: as above
T2 construct: Eurofins Cerep (contract screening)
T2 sequence (P18825 1-462): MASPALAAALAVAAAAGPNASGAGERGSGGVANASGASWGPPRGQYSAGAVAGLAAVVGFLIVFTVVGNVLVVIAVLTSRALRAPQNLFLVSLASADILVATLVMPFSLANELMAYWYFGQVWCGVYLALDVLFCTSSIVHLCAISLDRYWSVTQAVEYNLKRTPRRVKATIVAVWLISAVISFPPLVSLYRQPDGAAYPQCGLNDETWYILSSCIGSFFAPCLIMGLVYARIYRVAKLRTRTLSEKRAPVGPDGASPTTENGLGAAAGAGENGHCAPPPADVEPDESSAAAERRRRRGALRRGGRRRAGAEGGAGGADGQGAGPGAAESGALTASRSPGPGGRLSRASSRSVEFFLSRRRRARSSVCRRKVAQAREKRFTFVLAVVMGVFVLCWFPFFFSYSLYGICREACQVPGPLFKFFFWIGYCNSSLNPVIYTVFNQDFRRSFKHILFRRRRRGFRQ

hMOR = hMOR (Homo sapiens, UniProt P35372); test: Radioligand binding assay (Eurofins Cerep), [3H]DAMGO displacement
Sequence of hMOR (P35372 whole entry): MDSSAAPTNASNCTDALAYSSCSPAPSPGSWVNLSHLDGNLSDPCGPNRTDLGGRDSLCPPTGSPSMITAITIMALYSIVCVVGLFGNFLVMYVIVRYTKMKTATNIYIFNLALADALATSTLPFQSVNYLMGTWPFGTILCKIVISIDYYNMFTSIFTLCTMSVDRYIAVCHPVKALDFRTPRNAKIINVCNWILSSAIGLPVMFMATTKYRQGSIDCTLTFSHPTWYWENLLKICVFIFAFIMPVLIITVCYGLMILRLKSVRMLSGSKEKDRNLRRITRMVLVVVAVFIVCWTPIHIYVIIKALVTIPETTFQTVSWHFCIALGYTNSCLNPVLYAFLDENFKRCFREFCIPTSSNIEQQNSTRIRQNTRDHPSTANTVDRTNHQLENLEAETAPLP

hDOR = hDOR (Homo sapiens, UniProt P41143); test: Radioligand binding assay (Eurofins Cerep), [3H]DADLE displacement
Sequence of hDOR (P41143 whole entry): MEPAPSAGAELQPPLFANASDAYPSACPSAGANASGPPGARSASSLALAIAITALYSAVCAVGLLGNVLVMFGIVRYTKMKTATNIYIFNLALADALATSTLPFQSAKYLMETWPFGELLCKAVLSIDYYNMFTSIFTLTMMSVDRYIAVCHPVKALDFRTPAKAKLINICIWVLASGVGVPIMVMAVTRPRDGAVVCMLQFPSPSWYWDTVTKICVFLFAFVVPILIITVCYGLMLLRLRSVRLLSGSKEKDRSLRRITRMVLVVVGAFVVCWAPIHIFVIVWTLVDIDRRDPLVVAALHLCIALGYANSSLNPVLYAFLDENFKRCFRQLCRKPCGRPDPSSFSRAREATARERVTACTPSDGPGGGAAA

hKOR = hKOR (Homo sapiens, UniProt P41145); test: Radioligand binding assay (Eurofins Cerep), [3H]U69,593 displacement
Sequence of hKOR (P41145 whole entry): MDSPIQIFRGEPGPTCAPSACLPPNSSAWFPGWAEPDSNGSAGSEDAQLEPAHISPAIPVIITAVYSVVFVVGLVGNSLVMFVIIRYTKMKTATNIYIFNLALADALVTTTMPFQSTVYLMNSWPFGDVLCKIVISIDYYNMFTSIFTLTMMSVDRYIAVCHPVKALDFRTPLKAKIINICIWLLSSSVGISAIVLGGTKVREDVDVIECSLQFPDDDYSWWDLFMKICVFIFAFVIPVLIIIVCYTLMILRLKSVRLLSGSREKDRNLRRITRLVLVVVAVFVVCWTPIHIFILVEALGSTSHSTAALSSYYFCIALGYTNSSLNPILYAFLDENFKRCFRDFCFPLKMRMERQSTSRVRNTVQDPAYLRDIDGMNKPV

[1] = Alpha2C Ki ± SEM (nM), Table B1, mean ± SEM, 3 independent experiments
[2] = Table B1, mean ± SEM, 3 independent experiments, read-out: MOR Ki ± SEM
[3] = Alpha2A Ki ± SEM (nM), Table B1, mean ± SEM, 3 independent experiments
[4] = Table 3-2, 3 independent experiments, read-out: Ki (nM ± SEM) DOR
[5] = Table 3-3, 3 independent experiments, read-out: Ki (nM ± SEM) DOR
[6] = Table 3-2, 3 independent experiments, read-out: Ki (nM ± SEM) KOR
[7] = Table 3-3, 3 independent experiments, read-out: Ki (nM ± SEM) KOR
[8] = Table 3-6, 3 independent experiments, read-out: Ki (nM ± SEM) KOR
[9] = Ki (nM ± SEM) a2A-AR, Table 3-2, 3 independent experiments
[10] = Ki (nM ± SEM) a2A-AR, Table 3-6, 3 independent experiments
[11] = Table 3-2, 3 independent experiments, read-out: Ki (nM ± SEM) MOR
[12] = Table 3-3, 3 independent experiments, read-out: Ki (nM ± SEM) MOR
[13] = Table 3-6, 3 independent experiments, read-out: Ki (nM ± SEM) MOR
[14] = Table B1, mean ± SEM, 3 independent experiments, read-out: Alpha2C Ki ± SEM
[15] = Table A4, data summary #2, read-out: DOR Ki ± SEM
[16] = Table A1, data summary #1, read-out: KOR Ki ± SEM
[17] = Table A4, data summary #2, read-out: KOR Ki ± SEM
[18] = Table A4, data summary #2, read-out: Alpha2A Ki ± SEM
[19] = Table B1′, read-out: DOR Ki ± SEM
[20] = Table B1′, read-out: KOR Ki ± SEM
[21] = Table B1′, read-out: alpha2A Ki ± SEM
[22] = Table B1′, read-out: MOR Ki ± SEM
[23] = alpha2A Ki ± SEM (nM), Table B1′

COC(=O)CC1CCN2CCC(c3ccccc3OC)CC2C1 (stereo not shown) [SG-01-008, Methyl 2-(8-(2-methoxyphenyl)octahydro-1H-quinolizin-2-yl)acetate]
Ki (α2A adrenergic receptor; Table B1, mean ± SEM, 3 independent experiments, read-out: Alpha2A Ki ± SEM): 27.9 ± 3.05 nM
Ki (α2C adrenergic receptor; [1]): 13.6 ± 0.828 nM
Ki (hMOR; [2]): > 10000 nM

COC(=O)C=C1CCN2CCC(O)(c3ccccc3OC)CC2C1 (single isomer, unassigned) [SG-01-005B]
Ki (α2A adrenergic receptor; [3]): 110 ± 8 nM
Ki (α2C adrenergic receptor; [1]): 46.7 ± 4.04 nM
Ki (hMOR; [2]): > 10000 nM

COC(=O)CC1CCN(CCc2c[nH]c3cccc(OC)c23)CC1 [Compound 3-22]
Ki (hDOR; Table 3-1, 3 independent experiments, read-out: Ki (nM ± SEM) DOR): > 10000 nM
Ki (hDOR; [4]): > 10000 nM
Ki (hDOR; [5]): > 10000 nM
Ki (hDOR; Table 3-5, 3 independent experiments, read-out: Ki (nM ± SEM) DOR): > 10000 nM
Ki (hDOR; Table 3-6, 3 independent experiments, read-out: Ki (nM ± SEM) DOR): > 10000 nM
Ki (hKOR; Table 3-1, 3 independent experiments, read-out: Ki (nM ± SEM) KOR): > 10000 nM
Ki (hKOR; [6]): > 10000 nM
Ki (hKOR; [7]): > 10000 nM
Ki (hKOR; Table 3-5, 3 independent experiments, read-out: Ki (nM ± SEM) KOR): > 10000 nM
Ki (hKOR; [8]): > 10000 nM
Ki (α2A adrenergic receptor; Ki (nM ± SEM) a2A-AR, Table 3-1, 3 independent experiments): 229 ± 24.9 nM
Ki (α2A adrenergic receptor; [9]): 229 ± 24.9 nM
Ki (α2A adrenergic receptor; Ki (nM ± SEM) a2A-AR, Table 3-3, 3 independent experiments): 229 ± 24.9 nM
Ki (α2A adrenergic receptor; [10]): 229 ± 24.9 nM
Ki (α2A adrenergic receptor; Ki (nM ± SEM) a2A-ar, Table 3-5, 3 independent experiments): 229 ± 24.9 nM
Ki (α2C adrenergic receptor; Ki (nM ± SEM) a2C-AR, Table 3-1, 3 independent experiments): 69.3 ± 4.2 nM
Ki (α2C adrenergic receptor; Ki (nM ± SEM) a2C-AR, Table 3-2, 3 independent experiments): 69.3 ± 4.16 nM
Ki (α2C adrenergic receptor; Ki (nM ± SEM) a2C-AR, Table 3-3, 3 independent experiments): 69.3 ± 4.16 nM
Ki (α2C adrenergic receptor; Ki (nM ± SEM) a2C-AR, Table 3-5, 3 independent experiments): 69.3 ± 4.16 nM
Ki (α2C adrenergic receptor; Ki (nM ± SEM) a2C-AR, Table 3-6, 3 independent experiments): 69.3 ± 4.16 nM
Ki (hMOR; Table 3-1, 3 independent experiments, read-out: Ki (nM ± SEM) MOR): > 10000 nM
Ki (hMOR; [11]): > 10000 nM
Ki (hMOR; [12]): > 10000 nM
Ki (hMOR; Table 3-5, 3 independent experiments, read-out: Ki (nM ± SEM) MOR): > 10000 nM
Ki (hMOR; [13]): > 10000 nM

C#CCCN1CCC(O)(c2ccccc2OC)CC1 [SG-01-003, 1-(but-3-ynyl)-4-(2-methoxyphenyl)piperidin-4-ol]
Ki (α2A adrenergic receptor; [3]): 5750 ± 1170 nM
Ki (α2C adrenergic receptor; [14]): > 10000 nM
Ki (hMOR; [2]): > 10000 nM
selectivity between MOR and α 2A (hMOR; binding screen of intermediates): not selective towards both receptors

COC(=O)CC1CCN2CCC(O)(c3ccccc3OC)CC2C1 (stereo not shown) [SG-01-006, Methyl 2-(8-hydroxy-8-(2-methoxyphenyl)octahydro-1H-quinolizin-2-yl)acetate]
Ki (α2A adrenergic receptor; [3]): 376 ± 72.2 nM
Ki (α2C adrenergic receptor; [14]): 139 ± 20.3 nM
Ki (hMOR; [2]): > 10000 nM

CC[C@@H]1CN2CC[C@@]3(O)C(=Nc4cccc(OC)c43)[C@@H]2C[C@@H]1/C(=C\OC)C(=O)OC [7-Hydroxy Mitragynine, reference compound]
Ki (hDOR; Table A1, data summary #1, read-out: DOR Ki ± SEM): 243 nM
Ki (hDOR; [15]): 243 nM
Ki (hKOR; [16]): 450 nM
Ki (hKOR; [17]): 450 nM
Ki (α2A adrenergic receptor; Table A1, data summary #1, read-out: Alpha2A Ki ± SEM): > 10000 nM
Ki (α2A adrenergic receptor; [18]): > 10000 nM
Ki (α2C adrenergic receptor; Table A1, data summary #1, read-out: Alpha2C Ki ± SEM): > 10000 nM

COC(=O)C=C1CCN2CCC(O)(c3ccccc3OC)CC2C1 (single isomer, unassigned) [SG-01-005A]
Ki (α2A adrenergic receptor; [3]): 1000 ± 254 nM
Ki (α2C adrenergic receptor; [14]): 489 ± 83.4 nM
Ki (hMOR; [2]): > 10000 nM

COC(=O)C=C1CCN2CCC(O)(c3ccccc3OC)CC2C1 (stereo not shown) [SG-01-005, Methyl 2-(8-hydroxy-8-(2-methoxyphenyl)dihydro-1H-quinolizin-2(6H,7H,8H,9H, 9aH)-ylidene)acetate]
Ki (α2A adrenergic receptor; [3]): 264 ± 16 nM
Ki (α2C adrenergic receptor; [14]): 129 ± 37.9 nM
Ki (hMOR; [2]): > 10000 nM

COC(=O)CC1CCN2CCC(c3ccccc3OC)CC2C1 (stereo not shown) [drawing 171]
Ki (hDOR; [19]): > 10000 nM
Ki (hKOR; [20]): > 10000 nM
Ki (α2A adrenergic receptor; [21]): 24 ± 3 nM
Ki (hMOR; [22]): > 10000 nM

COC(=O)C=C1CCN2CCC(O)(c3cccc(OC)c3)CC2C1 (stereo not shown) [drawing 180]
Ki (hDOR; [19]): > 10000 nM
Ki (hKOR; [20]): > 10000 nM
Ki (α2A adrenergic receptor; [23]): 44 ± 5 nM
Ki (hMOR; [22]): > 10000 nM

COCC(C(=O)OC)C1CCN(CCc2c[nH]c3ccccc23)CC1 (stereo not shown) [Compound 3-71]
Ki (hDOR; Ki (nM ± SEM) DOR, Table 3-6, 3 independent experiments): > 10000 nM
Ki (hKOR; [8]): > 10000 nM
Ki (α2A adrenergic receptor; [10]): 2760 ± 281 nM
SR: Selectivity Ratio (KiMOR/Kiα2A) (hMOR; Table 3-6): 2.02
Ki (hMOR; [13]): 5580 ± 1700 nM

CC[C@@H]1CN2CCc3c([nH]c4cccc(OC)c34)[C@@H]2C[C@@H]1/C(=C\OC)C(=O)n1cccc1 [SUSM-526]
Ki (hDOR; [15]): > 10000 nM
Ki (hKOR; [16]): 5800 ± 1390 nM
Ki (hKOR; [17]): > 10000 nM
Ki (hKOR; read-out: Ki at hKOR): 57900 nM
Ki (α2A adrenergic receptor; [18]): > 10000 nM
Ki (hMOR; Table A1, data summary #1, read-out: MOR Ki ± SEM): 2160 ± 941 nM
Ki (hMOR; Table A4, data summary #2, read-out: MOR Ki ± SEM): 719 ± 414 nM
Ki (hMOR; read-out: Ki at hMOR / opioid binding (converted)): 21600 nM

COC(=O)CC1CCN2CCC(O)(c3ccc(F)cc3)CC2C1 (stereo not shown)
Ki (hDOR; [19]): > 10000 nM
Ki (hKOR; [20]): > 10000 nM
Ki (α2A adrenergic receptor; [23]): 240 ± 63 nM
Ki (hMOR; [22]): 424 ± 203 nM

COC(=O)C=C1CCN2CCC(O)(c3ccccc3OC)CC2C1 (stereo not shown) [drawing 167]
Ki (hDOR; [19]): 2940 ± 2550 nM
Ki (hKOR; [20]): > 10000 nM
Ki (α2A adrenergic receptor; [23]): 227 ± 37 nM
Ki (hMOR; [22]): > 10000 nM

COC(=O)CC1CCN2CC=C(c3ccccc3OC)CC2C1 (stereo not shown)
Ki (hDOR; [19]): > 10000 nM
Ki (hKOR; [20]): > 10000 nM
Ki (α2A adrenergic receptor; [21]): 15 nM
Ki (hMOR; [22]): > 10000 nM

COC(=O)CC1CCN(CC(=O)N2CCc3c(OC)cccc32)CC1 [Compound 3-46]
Ki (hDOR; [5]): > 10000 nM
Ki (hKOR; [7]): > 10000 nM
Ki (α2A adrenergic receptor; Table 3-3, 3 independent experiments, read-out: Ki (nM ± SEM) a2A-AR): 6370 ± 1160 nM
Ki (hMOR; [12]): > 10000 nM

COC(=O)CC1CCN(CCc2c[nH]c3ccccc23)CC1 [Compound 3-43]
Ki (hDOR; read-out: Ki (nM ± SEM) DOR, Table 3-3, 3 independent experiments): > 10000 nM
Ki (hKOR; [7]): > 10000 nM
Ki (α2A adrenergic receptor; read-out: Ki (nM ± SEM) a2A-AR, Table 3-3, 3 independent experiments): 1840 ± 201 nM
Ki (hMOR; [12]): 8910 ± 1800 nM

COc1ccccc1C1(O)CCN2CCC(=O)CC2C1 (stereo not shown)
Ki (hDOR; [19]): > 10000 nM
Ki (hKOR; [20]): > 10000 nM
Ki (α2A adrenergic receptor; [23]): 5750 ± 1170 nM
Ki (hMOR; [22]): > 10000 nM

COC(=O)CC1CCN(CCc2c[nH]c3ccc(OC)cc23)CC1 [Compound 3-38]
Ki (hDOR; [4]): > 10000 nM
Ki (hKOR; [6]): 8070 ± 810 nM
Ki (α2A adrenergic receptor; [9]): 1590 ± 225 nM
Ki (hMOR; [11]): > 10000 nM
